Test system: EGFR (Del19/T790M/C797S)
Experiment: Cell degradation HTRF assay, H1975-clone #28 cells
Assay type: cell-based
Conditions: H1975-clone #28 (Del19/T790M/C797S) cells, 16 h treatment; for DC50: HTRF, read-out: H1975-clone#28 DTC DC50; for H1975-clone#28 DTC Dmax (%): maximum percentage of degradation
Description: Cell Degradation of Example 124-189
H1975-#28 and H1975-#25 cells are treated with compounds diluted in 0.2% DMSO cell culture medium on day 2, incubate for 16 h, 37° C., 5% CO2. the final concentration of compounds in all assay is start with 10 uM, 5-fold dilution, total 8 doses were included.
After 16 h treatment, add HTRF lysis buffer to each well; seal the plate and incubate 1 hour at room temperature on a plate shaker; Once the cells are lysed, 16 μL of cell lysate are transferred to a PE 384-well HTRF detection plate; 4 μL of pre-mixed HTRF antibodies are added to each well; Cover the plate with a plate sealer, spin 1000 rpm for 1 min, Incubate overnight at room temperature; Read on BMG PheraStar with HTRF protocol (337 nm-665 nm-620 nm).
The inhibition (degradation) percentage of the compound was calculated by the following equation:
Inhibition percentage of Compound=100−100×(Signal−low control)/(High control−low control), wherein signal=each test compound group.
High control=Cell group with added DMSO and without compound, indicating microplate readings without EGFR degradation;
Dmax is the maximum percentage of inhibition (degradation).
The IC50 (DC50) value of a compound can be obtained by fitting the following equation
Y=Bottom+(TOP−Bottom)/(1+((IC50/X)^hillslope))
Wherein, X and Y are known values, and IC50, Hillslope, Top and Bottom are the parameters obtained by fitting with software. Y is the inhibition percentage (calculated from the equation), X is the concentration of the compound; IC50 is the concentration of the compound when the 50% inhibition is reached. The smaller the IC50 value is, the stronger the inhibitory ability of the compound is. Vice versa, the higher the IC50 value is, the weaker the ability the inhibitory ability of the compound is; Hillslope represents the slope of the fitted curve, generally around 1*; Bottom represents the minimum value of the curve obtained by data fitting, which is generally 0%±20%; Top represents the maximum value of the curve obtained by data fitting, which is generally 100%±20%. The experimental data were fitted by calculating and analyzing with Dotmatics data analysis software. When Dmax<50%, DC50 will be automatically assigned as larger than […].

## CCc1cc(Nc2ncc(Br)c(Nc3cnc4ccc(F)cc4c3P(C)(C)=O)n2)c(OC)cc1N1CCC(N2CCN(CCc3cccc4c3n(C)c(=O)n4C3CCC(=O)NC3=O)CC2)CC1 (stereo not drawn) [Example 170, 3-(4-(2-(4-(1-(4-((5-bromo-4-((4-(dimethylphosphoryl)-6-fluoroquinolin-3-yl)amino)pyrimidin-2-yl)amino)-2-ethyl-5-methoxyphenyl)piperidin-4-yl)piperazin-1-yl)ethyl)-3-methyl-2-oxo-2,3-dihydro-1H-benzo[d]imidazol-1-yl)piperidine-2,6-dione]
  DC50: 2.1 nM
  H1975-clone#28 DTC Dmax (%): 82%

## CCc1cc(Nc2ncc(Br)c(Nc3cnc4ccccc4c3P(C)(C)=O)n2)c(OC)cc1N1CCC(N2CCN(CCc3ccc(F)c4c3n(C)c(=O)n4C3CCC(=O)NC3=O)CC2)CC1 (stereo not drawn) [Example 130, 3-(4-(2-(4-(1-(4-((5-bromo-4-((4-(dimethylphosphoryl)quinolin-3-yl)amino)pyrimidin-2-yl)amino)-2-ethyl-5-methoxyphenyl)piperidin-4-yl)piperazin-1-yl)ethyl)-7-fluoro-3-methyl-2-oxo-2,3-dihydro-1H-benzo[d]imidazol-1-yl)piperidine-2,6-dione]
  DC50: 1 nM
  H1975-clone#28 DTC Dmax (%): 86%

## CCc1cc(Nc2ncc(Br)c(Nc3cnc4ccc(C(F)(F)F)cc4c3P(C)(C)=O)n2)c(OC)cc1N1CCC(N2CCN(CCc3cc(F)c(C4CCC(=O)NC4=O)c(F)c3)CC2)CC1 (stereo not drawn) [Example 171, 3-(4-(2-(4-(1-(4-((5-bromo-4-((4-(dimethylphosphoryl)-6-(trifluoromethyl)quinolin-3-yl)amino)pyrimidin-2-yl)amino)-2-ethyl-5-methoxyphenyl)piperidin-4-yl)piperazin-1-yl)ethyl)-2,6-difluorophenyl)piperidine-2,6-dione]
  DC50: 4.3 nM
  H1975-clone#28 DTC Dmax (%): 79%

## CCOc1cc(N2CCC(N3CCN(CCc4ccc5c(c4)oc(=O)n5C4CCC(=O)NC4=O)CC3)CC2)c(CC)cc1Nc1ncc(Br)c(Nc2cnc3cc(F)ccc3c2P(C)(C)=O)n1 (stereo not drawn) [Example 133, 3-(6-(2-(4-(1-(4-((5-bromo-4-((4-(dimethylphosphoryl)-7-fluoroquinolin-3-yl)amino)pyrimidin-2-yl)amino)-5-ethoxy-2-ethylphenyl)piperidin-4-yl)piperazin-1-yl)ethyl)-2-oxobenzo[d]oxazol-3(2H)-yl)piperidine-2,6-dione]
  DC50: 3 nM
  H1975-clone#28 DTC Dmax (%): 71%

## CCc1cc(Nc2ncc(Br)c(Nc3cnc4ccccc4c3P(C)(C)=O)n2)c(OC)cc1N1CCC(N2CCN(CCc3ccc4c(c3)oc(=O)n4C3CCC(=O)NC3=O)CC2)CC1 (stereo not drawn) [Example 132, 3-(6-(2-(4-(1-(4-((5-bromo-4-((4-(dimethylphosphoryl)quinolin-3-yl)amino)pyrimidin-2-yl)amino)-2-ethyl-5-methoxyphenyl)piperidin-4-yl)piperazin-1-yl)ethyl)-2-oxobenzo[d]oxazol-3(2H)-yl)piperidine-2,6-dione]
  DC50: 1 nM
  H1975-clone#28 DTC Dmax (%): 80%

## CCc1cc(Nc2ncc(Br)c(Nc3cnc4ccccc4c3P(C)(C)=O)n2)c(OC)cc1N1CCC(N2CCN(CCc3cccc4c3oc(=O)n4C3CCC(=O)NC3=O)CC2)CC1 (stereo not drawn) [Example 188, 3-(7-(2-(4-(1-(4-((5-bromo-4-((4-(dimethylphosphoryl)quinolin-3-yl)amino)pyrimidin-2-yl)amino)-2-ethyl-5-methoxyphenyl)piperidin-4-yl)piperazin-1-yl)ethyl)-2-oxobenzo[d]oxazol-3(2H)-yl)piperidine-2,6-dione]
  DC50: 0.8 nM
  H1975-clone#28 DTC Dmax (%): 84%

## CCc1cc(Nc2ncc(Br)c(Nc3cnc4ccc(F)cc4c3P(C)(C)=O)n2)c(OC)cc1N1CCC(N2CCN(CCc3cc(F)c(C4CCC(=O)NC4=O)c(F)c3)CC2)CC1 (stereo not drawn) [Example 174, 3-(4-(2-(4-(1-(4-((5-bromo-4-((4-(dimethylphosphoryl)-6-fluoroquinolin-3-yl)amino)pyrimidin-2-yl)amino)-2-ethyl-5-methoxyphenyl)piperidin-4-yl)piperazin-1-yl)ethyl)-2,6-difluorophenyl)piperidine-2,6-dione]
  DC50: 1.8 nM
  H1975-clone#28 DTC Dmax (%): 80%

## CCc1cc(Nc2ncc(Br)c(Nc3cnc4c(F)c(F)ccc4c3P(C)(C)=O)n2)c(OC)cc1N1CCC(N2CCN(CCc3cc(F)c(C4CCC(=O)NC4=O)c(F)c3)CC2)CC1 (stereo not drawn) [Example 173, 3-(4-(2-(4-(1-(4-((5-bromo-4-((4-(dimethylphosphoryl)-7,8-difluoroquinolin-3-yl)amino)pyrimidin-2-yl)amino)-2-ethyl-5-methoxyphenyl)piperidin-4-yl)piperazin-1-yl)ethyl)-2,6-difluorophenyl)piperidine-2,6-dione]
  DC50: 2.7 nM
  H1975-clone#28 DTC Dmax (%): 82%

## CCOc1cc(N2CCC(N3CCN(CCc4cc(F)c(F)c5c4oc(=O)n5C4CCC(=O)NC4=O)CC3)CC2)c(CC)cc1Nc1ncc(Br)c(Nc2cnc3ccccc3c2P(C)(C)=O)n1 (stereo not drawn) [Example 136, 3-(7-(2-(4-(1-(4-((5-bromo-4-((4-(dimethylphosphoryl)quinolin-3-yl)amino)pyrimidin-2-yl)amino)-5-ethoxy-2-ethylphenyl)piperidin-4-yl)piperazin-1-yl)ethyl)-4,5-difluoro-2-oxobenzo[d]oxazol-3(2H)-yl)piperidine-2,6-dione]
  DC50: 0.6 nM
  H1975-clone#28 DTC Dmax (%): 81%

## CCOc1cc(N2CCC(N3CCN(CCc4cc(F)c(C5CCC(=O)NC5=O)c(F)c4)CC3)CC2)c(C)cc1Nc1ncc(Br)c(Nc2cnc3ccccc3c2P(C)(C)=O)n1 (stereo not drawn) [Example 183, 3-(4-(2-(4-(1-(4-((5-bromo-4-((4-(dimethylphosphoryl)quinolin-3-yl)amino)pyrimidin-2-yl)amino)-5-ethoxy-2-methylphenyl)piperidin-4-yl)piperazin-1-yl)ethyl)-2,6-difluorophenyl)piperidine-2,6-dione]
  DC50: 4.6 nM
  H1975-clone#28 DTC Dmax (%): 73%

## CCc1cc(Nc2ncc(Br)c(Nc3cnc4ccccc4c3P(C)(C)=O)n2)c(OC)cc1N1CCC(N2CCN(CCc3cccc4c3C(C)(C)C(=O)N4C3CCC(=O)NC3=O)CC2)CC1 (stereo not drawn) [Example 164, 3-(4-(2-(4-(1-(4-((5-bromo-4-((4-(dimethylphosphoryl)quinolin-3-yl)amino)pyrimidin-2-yl)amino)-2-ethyl-5-methoxyphenyl)piperidin-4-yl)piperazin-1-yl)ethyl)-3,3-dimethyl-2-oxoindolin-1-yl)piperidine-2,6-dione]
  DC50: 2.1 nM
  H1975-clone#28 DTC Dmax (%): 81%

## CCc1cc(Nc2ncc(Br)c(Nc3cnc4ccccc4c3P(C)(C)=O)n2)c(OC)cc1N1CCC(N2CCN(CCc3cc(F)c(C4CCC(=O)NC4=O)c(F)c3F)CC2)CC1 (stereo not drawn) [Example 180, 3-(4-(2-(4-(1-(4-((5-bromo-4-((4-(dimethylphosphoryl)quinolin-3-yl)amino)pyrimidin-2-yl)amino)-2-ethyl-5-methoxyphenyl)piperidin-4-yl)piperazin-1-yl)ethyl)-2,3,6-trifluorophenyl)piperidine-2,6-dione]
  DC50: 2 nM
  H1975-clone#28 DTC Dmax (%): 83%
